In patent publication US8791272B2, “Pyrazole compounds as CRTH2 antagonists” (Boehringer Ingelheim International GmbH, priority 2011, dated 2014):

Target: human CRTH2 receptor (Homo sapiens (Human), UniProt Q9Y5Y4)
Assay: CRTH2 receptor radioligand binding assay (SPA, [3H]-PGD2 displacement)
Settings: [3H]-PGD2 1 nM, CHO-K1-hCRTH2 cell membranes, SPA format, 3 h room temperature
Protocol: The binding of CRTH2 antagonists is determined using membranes prepared from Chinese hamster ovary cells (CHO-K1 cells) transfected with the human CRTH2 receptor (CHO-K1-hCRTH2 cells, Perkin Elmer, Cat No ES-561-C). To produce cell membranes the CHO-K1-hCRTH2 cells are cultured in suspension in CHO SFMII medium supplemented with 400 μg/ml G418. The cells are harvested by centrifugation at 300 g for 10 min at room temperature. The cell pellet is resuspended in Phosphate Buffer Saline (PBS) including a protease inhibitor mix (Complete, Roche) and adjusted to a concentration of 10E7 cells/ml. The CHO-K1-hCRTH2 cells are disrupted by nitrogen […] to obtain the membrane preparation. Cell debris is removed by centrifugation (500 g at 4° C., 30 min) and the supernatant is transferred into fresh tubes followed by a second centrifugation at 40000 g for 1 h at 4° C. to sediment the membranes. The membranes are suspended in SPA incubation buffer (50 mM Tris HCl, 10 mM MgCl2, 150 mM NaCl, 1 mM EDTA, pH 7.4) without bovine serum albumin, homogenized by passing through a single use needle (Terumo, 23G×1″), and stored in aliquots at −80° C.
The CRTH2 receptor binding assay is performed in a scintillation proximity assay (SPA) format with the radioligand [^3H]-PGD2 (Perkin Elmer, NET616000MC). CHO-K1-hCRTH2 cell membranes are again homogenized by passing through a single use needle (Terumo, 23G×1″) and diluted in SPA incubation buffer in suitable concentrations (0.5-10 μg protein/well). The SPA assay is set up in 96 well microtiter plates (Perkin Elmer, CatNo. 6005040) in SPA incubation buffer with a final volume of 200 μl per well and final concentration of 50 mM Tris-HCl, 10 mM MgCl2, 150 mM NaCl, 1 mM EDTA pH 7.4, 0.1% bovine serum albumin). The SPA assay mixture contains 60 μl of the membrane suspension, 80 μl of Wheat Germ Agglutinin coated PVT beads (GE Healthcare, RPNQ-0001, 0.3 mg/well), 40 μl of [3H]-PGD2 diluted in SPA buffer to a final concentration of 1 nM (50 000 dpm) and 20 μl of the test compound (dissolved in dimethylsulfoxid). The SPA assay mixture is incubated for 3 h at room temperature. Bound radioactivity is determined with a scintillation counter (Micro Beta Trilux, Wallac).
The binding of [^3H]-PGD2 to CHO-K1-hCRTH2 cell membranes is determined in the absence (total binding, Bo) and presence (non-specific binding, NSB) of unlabelled PGD2 (1 μM, Cayman Chemical, Cat No 12010) or a reference CRTH2 antagonist (10 μM CAY10471, Cayman Chemical, Cat No 10006735).
Determination of the affinity of a test compound is calculated by subtraction of the non-specific binding (NSB) from the total binding (Bo) or the binding in the presence of the test compound (B) at a given compound concentration. […] The Bo-NSB value is set to 0% inhibition.

human CRTH2 receptor, sequence (Q9Y5Y4 whole entry): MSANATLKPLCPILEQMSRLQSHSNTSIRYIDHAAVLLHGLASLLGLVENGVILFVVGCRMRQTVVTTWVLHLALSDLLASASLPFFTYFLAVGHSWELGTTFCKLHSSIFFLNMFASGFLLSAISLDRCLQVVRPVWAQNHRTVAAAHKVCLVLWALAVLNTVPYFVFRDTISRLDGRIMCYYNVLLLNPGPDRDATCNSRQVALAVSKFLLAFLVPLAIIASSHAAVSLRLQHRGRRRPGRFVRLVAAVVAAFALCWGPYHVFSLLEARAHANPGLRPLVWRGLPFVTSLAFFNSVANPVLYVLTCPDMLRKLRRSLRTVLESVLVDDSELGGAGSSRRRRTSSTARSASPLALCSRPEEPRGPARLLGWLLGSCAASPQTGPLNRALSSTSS

SMILES | Ki [nM]
CCCc1nn(Cc2ccc(NC(=O)c3ccc(C(F)(F)F)cc3C)cc2)c(C(C)C)c1CC(=O)O [Example 2.36] | 0.7
CCCc1nn(Cc2ccc(NC(=O)c3ccc(Cl)cc3)cc2)c(C(C)C)c1CC(=O)O [Example 2.37] | 0.4
CCCc1nn(Cc2ccc(NC(=O)c3ccc(Cl)cc3C)cc2)c(C(C)C)c1CC(=O)O [Example 2.38] | 1
CCCc1nn(Cc2ccc(NC(=O)c3ccccc3)cc2)c(C(C)C)c1CC(=O)O [Example 2.39] | 1.6
CCCc1nn(Cc2ccc(NC(=O)c3ccc(Cl)c(Cl)c3)cc2)c(C(C)C)c1CC(=O)O [Example 2.40] | 0.2
CCCc1nn(Cc2ccc(NC(=O)c3ccc(C(F)(F)F)cc3)cc2)c(C(C)C)c1CC(=O)O [Example 2.41] | 0.2
CCCc1nn(Cc2ccc(NC(=O)c3ccc4ccccc4c3)cc2)c(C(C)C)c1CC(=O)O [Example 2.42] | 0.1
Cc1nn(Cc2ccc(/C=C/c3ccc(C(F)(F)F)cc3)cc2)c(C)c1CC(=O)O [Example 12.2, (3,5-Dimethyl-1-{4-[(E)-2-(4-trifluoromethyl-phenyl)-vinyl]-benzyl}-1H-pyrazol-4-yl)-acetic acid] | 56.3
CCc1nn(Cc2ccc(OCc3ccc(Cl)c(C(F)(F)F)c3)cc2)c(CC)c1CC(=O)O [Example 13.7] | 4.8
